Experimental findings from patent US11976083B2, “Inhibitors of peptidylarginine deiminases” (Gilead Sciences, Inc., priority 2020, dated 2024) are described below.

The target of the assay is T1, human PAD4 (Homo sapiens, UniProt Q9UM07).
T1 construct: human PAD4 (NM_012387), A2-P663, was PCR amplified; His-SUMO (N, cleaved yes); made in house; host or cells: E. coli BL21(DE3)
As to the kind of experiment: In vitro PAD4 BAEE biochemical assay. Particulars: BAEE substrate 3 mM, 5 nM PAD4, 2 mM calcium chloride; geometric mean of multiple experiments. The method, boiled down:
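Assay was run at 25 °C using 3 mM BAEE and 5 nM human PAD4 after a 30 min compound preincubation; ammonia produced over 2 h was quantified by OPA-derived fluorescence. Full inhibition was defined by 50 µM BB-Cl-Amidine, and IC50 came from variable-slope nonlinear regression.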

Structures are written as SMILES.

One may read the IC50 as the point on the concentration scale where inhibition reaches its midpoint.

T1 sequence (Q9UM07 2-663): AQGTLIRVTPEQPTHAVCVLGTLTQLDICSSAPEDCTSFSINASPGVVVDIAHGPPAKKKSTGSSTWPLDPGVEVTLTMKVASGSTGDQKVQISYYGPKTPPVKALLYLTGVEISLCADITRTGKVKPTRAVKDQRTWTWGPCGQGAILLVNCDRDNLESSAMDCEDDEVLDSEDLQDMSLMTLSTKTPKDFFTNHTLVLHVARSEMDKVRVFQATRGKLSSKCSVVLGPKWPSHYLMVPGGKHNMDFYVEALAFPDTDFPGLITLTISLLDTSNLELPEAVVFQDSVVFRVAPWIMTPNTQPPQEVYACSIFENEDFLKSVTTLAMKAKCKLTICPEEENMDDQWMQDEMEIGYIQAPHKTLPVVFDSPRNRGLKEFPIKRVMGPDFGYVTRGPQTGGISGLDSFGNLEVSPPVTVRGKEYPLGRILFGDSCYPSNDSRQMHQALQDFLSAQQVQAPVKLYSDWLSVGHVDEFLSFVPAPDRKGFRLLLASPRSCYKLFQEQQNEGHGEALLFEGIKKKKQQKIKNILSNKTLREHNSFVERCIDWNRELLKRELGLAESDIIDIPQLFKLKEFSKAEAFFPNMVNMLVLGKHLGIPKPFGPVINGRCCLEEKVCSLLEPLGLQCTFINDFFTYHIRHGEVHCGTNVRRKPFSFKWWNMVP

Take `COc1cc(C(=O)N2[C@H]3CC[C@@H]2[C@H](N)C3)cc2nc(-c3cc4ccc5nc4n3CCCCCCC(=O)N[C@@H]5C)c(C)n12` [Example 317, (10~{R})-16-[7-[(1~{R},2~{R},4~{S})-2-amino-7-azabicyclo[2.2.1]heptane-7-carbonyl]-5-methoxy-3-methyl-imidazo[1,2-a]pyridin-2-yl]-10-methyl-1,9,18-triazatricyclo[9.5.2.0^{14,17}]octadeca-11(18),12,14(17),15-tetraen-8-one]: the IC50 was 16 nM.
As for `COc1cc(C(=O)N2CCC[C@@H](N)C2)cc2nc(-c3cc4ccc5nc4n3CCCCCC[C@@](C)(C(F)(F)F)C(=O)N[C@@H]5C)n(C)c12` [Example 1, (8~{R},11~{R})-17-[5-[(3~{R})-3-aminopiperidine-1-carbonyl]-7-methoxy-1-methyl-benzimidazol-2-yl]-8,11-dimethyl-8-(trifluoromethyl)-1,10,19-triazatricyclo[10.5.2.0^{15,18}]nonadeca-12(19),13,15(18),16-tetraen-9-one], the figure is 104 nM.
Turning to `COc1cc(C(=O)N2CCC[C@@H](N)C2)cc2nc(-c3cc4ccc5nc4n3CCCCCCCC(=O)NC5C(F)F)n(C)c12` (stereo partly shown) [Example 238, 17-[5-[(3~{R})-3-aminopiperidine-1-carbonyl]-7-methoxy-1-methyl-benzimidazol-2-yl]-11-(difluoromethyl)-1,10,19-triazatricyclo[10.5.2.0^{15,18}]nonadeca-12(19),13,15(18),16-tetraen-9-one], the IC50 turned out to be 87 nM.
Then `COc1cc(C(=O)N2CC[C@@H](OC)[C@@H](N)C2)cc2nc(-c3cc4ccc5nc4n3Cc3ccccc3C/C=C/CC(=O)N[C@@H]5C)n(C)c12` [Example 239, (10~{E},15~{R})-21-[5-[(3~{S},4~{R})-3-amino-4-methoxy-piperidine-1-carbonyl]-7-methoxy-1-methyl-benzimidazol-2-yl]-15-methyl-1,14,23-triazatetracyclo[14.5.2.0^{3,8}.0^{19,22}] tricosa-3(8),4,6,10,16,18,20,22-octaen-13-one], with 583 nM; and `COc1cc(C(=O)N2CCC[C@@H](N)C2)cn2nc(-c3cc4ccc5nc4n3CCCCCCCC(=O)N[C@@H]5C)c(C)c12` [Example 26, (11~{R})-17-[6-[(3~{R})-3-aminopiperidine-1-carbonyl]-4-methoxy-3-methyl-pyrazolo[1,5-a]pyridin-2-yl]-11-methyl-1,10,19-triazatricyclo[10.5.2.0^{15,18}]nonadeca-12(19),13,15(18),16-tetraen-9-one], with 86 nM.
On to `COc1cc(C(=O)N2CC[C@H]3OCCN[C@H]3C2)cc2nc(-c3cc4ccc5nc4n3CC(F)(F)CCC[C@@H]3C[C@H]3C(=O)N[C@@H]5C)n(C)c12` [Example 803, (2~{R},5~{R},7~{R})-14-[5-[(4~{a}~{S},8~{a}~{R})-2,3,4,4~{a},5,7,8,8~{a}-octahydropyrido[4,3-b][1,4]oxazine-6-carbonyl]-7-methoxy-1-methyl-benzimidazol-2-yl]-11,11-difluoro-2-methyl-3,13,19-triazatetracyclo[11.5.2.0^ {5,7}.0^{16,20}]icosa-1(18),14,16,19-tetraen-4-one], for which the IC50 stood at 118 nM.
Take `COc1cc(C(=O)N[C@H]2CNC[C@H](O)C2)cc2nc(-c3cc4ccc5nc4n3CCCCCCC(C)(C)C(=O)N[C@@H]5C)n(C)c12` [Example 526, ~{N}-[(3~{R},5~{R})-5-hydroxy-3-piperidyl]-7-methoxy-1-methyl-2-[(11~{R})-8,8,11-trimethyl-9-oxo-1,10,19-triazatricyclo [10.5.2.0^{15,18}]nonadeca-12(19),13,15(18),16-tetraen-17-yl]benzimidazole-5-carboxamide]: the IC50 came out at 65 nM.
Then `C[C@H]1NC(=O)[C@@H]2C[C@H]2CCCCCn2c(-c3nc4cc(C(=O)N[C@H]5CNCC[C@@H]5F)c(F)cc4n3C)cc3ccc1nc32` [Example 242, 6-fluoro-~{N}-[(3~{S},4~{S})-4-fluoro-3-piperidyl]-1-methyl-2-[(2~{R},5~{R},7~{R})-2-methyl-4-oxo-3,13,19-triazatetracyclo[11.5.2.0^{5,7}.0^{16,20}]icosa-1(19),14,16(20),17-tetraen-14-yl]benzimidazole-5-carboxamide], with 31 nM; and `COc1cc(C(=O)N2C[C@H]3CC[C@@H]2[C@@H]3N)cc2nc(-c3cc4ccc5nc4n3CCCCCCC(C)(C)C(=O)N[C@@H]5C)n(C)c12` [Example 13, (11~{R})-17-[5-[(1~{R},4~{R},7~{R})-7-amino-2-azabicyclo[2.2.1]heptane-2-carbonyl]-7-methoxy-1-methyl-benzimidazol-2-yl]-8,8,11-trimethyl-1,10,19-triazatricyclo[10.5.2.0^{15,18}]nonadeca-12(19),13,15(18),16-tetraen-9-one], with 121 nM.
Then `C[C@H]1NC(=O)[C@@H]2[C@@H](CCCCCn3c(-c4nc5cc(C(=O)N[C@H]6CNCC[C@@H]6F)c(F)cc5n4C)cc4ccc1nc43)C2(F)F` (single isomer, unassigned) [Example 382, 2-[(2˜{R},5˜{S},7˜{R})-6,6-difluoro-2-methyl-4-oxo-3,13,19-triazatetracyclo[11.5.2.0^{5,7}.0^{16,20}]icosa-1(19),14,16(20),17-tetraen-14-yl]-6-fluoro-˜{N}-[(3˜{S},4˜{S})-4-fluoro-3-piperidyl]-1-methyl-benzimidazole-5-carboxamide], with 108 nM.
On to `COCCO[C@@H]1CCN(C(=O)c2cc(OC)c3c(c2)nc(-c2cc4ccc5nc4n2CCCCC[C@@H]2C[C@H]2C(=O)N[C@@H]5C)n3C)C[C@@H]1N` [Example 493, (2~{R},5~{R},7~{R})-14-[5-[(3~{S},4~{R})-3-amino-4-(2-methoxyethoxy)piperidine-1-carbonyl]-7-methoxy-1-methyl-benzimidazol-2-yl]-2-methyl-3,13,19-triazatetracyclo [11.5.2.0^{5,7}.0^{16,20}] icosa-1(19),14,16(20), 17-tetraen-4-one], for which the IC50 worked out at 76 nM.
As for `CN[C@H]1CN(C(=O)c2cc(OC)c3c(c2)nc(-c2cc4ccc5nc4n2CCCCCCC(C)(C)C(=O)N[C@@H]5C)n3C)CC[C@H]1OC` [Example 105, (11~{R})-17-[7-methoxy-5-[(3~{S},4~{R})-4-methoxy-3-(methylamino)piperidine-1-carbonyl]-1-methyl-benzimidazol-2-yl]-8,8,11-trimethyl-1,10,19-triazatricyclo[10.5.2.0^{15,18}]nonadeca-12(19),13,15(18),16-tetraen-9-one], the figure is 27400 nM.
Then `COc1cc(C(=O)N2C[C@H](N)[C@@H]3CC[C@H]2C3)cc2nc(-c3cc4ccc5nc4n3CCCCCc3nc(C(F)(F)F)ccc3C(=O)N[C@@H]5C)n(C)c12` [Example 842, (2~{R})-17-[5-[(1~{S},4~{R},5~ {R})-4-amino-2-azabicyclo[3.2.1]octane-2-carbonyl]-7-methoxy-1-methyl-benzimidazol-2-yl]-2-methyl-8-(trifluoromethyl)-3,9,16,22-tetrazatetracyclo[14.5.2.0^ {5,10}.0^{19,23}]tricosa-1(22), 5(10),6,8,17,19(23),20-heptaen-4-one], with 49 nM.
As for `COc1cc(C(=O)N2CCC[C@@H](N)C2)cc2nc(-c3cc4ccc5nc4n3CCCCCc3cnn(C)c3C(=O)N[C@@H]5C)n(C)c12` [Example 172, (2~{R})-16-[5-[(3~{R})-3-aminopiperidine-1-carbonyl]-7-methoxy-1-methyl-benzimidazol-2-yl]-2,6-dimethyl-3,6,7,15,21-pentazatetracyclo[13.5.2.0^{5,9}.0^{18,22}] docosa-1(21),5(9),7,16,18(22),19-hexaen-4-one], the figure is 101 nM; as for `C[C@H]1NC(=O)[C@@H]2C[C@@]2(F)CCCCCn2c(-c3nc4cc(C(=O)N[C@H]5CNCC[C@@H]5F)c(F)cc4n3C3CC3)cc3ccc1nc32` [Example 388], 12 nM; as for `COc1cc(C(=O)N2[C@H]3CC[C@@H]2[C@H](N)C3)cc2nc(-c3cc4ccc5nc4n3CC(C)(C)CCCCCC(=O)N[C@@H]5C)n(C)c12` [Example 141, (11~{R})-17-[5-[(1~{R},2~{R},4~{S})-2-amino-7-azabicyclo[2.2.1]heptane-7-carbonyl]-7-methoxy-1-methyl-benzimidazol-2-yl]-3,3,11-trimethyl-1,10,19-triazatricyclo[10.5.2.0^{15,18}]nonadeca-12(19),13,15(18),16-tetraen-9-one], 68 nM.
Turning to `COc1cc(C(=O)N2CC[C@@H](C)[C@@H](N)C2)cc2nc(-c3cc4ccc5nc4n3CCCCCCC(C)(C)C(=O)N[C@@H]5C)n(C)c12` [Example 196, (11~{R})-17-[5-[(3~{R},4~{R})-3-amino-4-methyl-piperidine-1-carbonyl]-7-methoxy-1-methyl-benzimidazol-2-yl]-8,8,11-trimethyl-1,10,19-triazatricyclo[10.5.2.0^{15,18}]nonadeca-12(19),13,15(18),16-tetraen-9-one], the IC50 amounted to 116 nM.
As to `COc1cc(C(=O)N2[C@H]3CC[C@@H]2[C@H](N)C3)cc2nc(-c3cc4ccc5cc4n3CCCCCCC(C)(C)C(=O)N[C@@H]5C)n(C)c12` [Example 216, (11˜{R})-17-[5-[(1˜{R},2˜{R},4˜{S})-2-amino-7-azabicyclo[2.2.1]heptane-7-carbonyl]-7-methoxy-1-methyl-benzimidazol-2-yl]-8,8,11-trimethyl-1,10-diazatricyclo[10.5.2.0^{15,18}]nonadeca-12(19),13,15(18),16-tetraen-9-one], the IC50 is 33 nM.
In the case of `C[C@H]1NC(=O)C(C)(C)CCCCCCn2c(-c3nc4cc(C(=O)N[C@H]5CNCC[C@@H]5F)c(F)cc4n3CCOC(F)F)cc3ccc1nc32` [Example 502, 1-[2-(difluoromethoxy)ethyl]-6-fluoro-~{N}-[(3~ {S},4~{S})-4-fluoro-3-piperidyl]-2-[(11~{R})-8,8,11-trimethyl-9-oxo-1,10,19-triazatricyclo[10.5.2.0^ {15,18}]nonadeca-12(19),13,15(18),16-tetraen-17-yl]benzimidazole-5-carboxamide], the IC50 was 128 nM.
